Source: patent US20240400972A1, “Antifouling Composition and Process for Production Thereof” (priority 2015, published 2024)

Experiments:
[1] = test system: extracellular proteases of PF-11 and NTC secretomes; format: biochemical; conditions: 10 mM inhibitor, relatively to non-treated control
Protocol: Briefly, 12% SDS-polyacrylamide gels (Laemmli 1970) were co-polymerized with 1% casein or gelatin at 4° C. Non reducing loading buffer (62.5 mM Tris, 2% SDS, 10% glycerol, 0.001% bromophenol blue) was added to secretome samples prior to loading. Electrophoresis was performed at 4° C. and 100 V until the bromophenol dye reached the bottom of the gel. After electrophoresis, gels were rinsed two times in 2.5% (v/v) Triton X-100, 30 min each, for SDS removal, followed by three washes, 5 min each, in deionized water. Gels were then incubated in activation buffer (0.1M Tris-HCl, 0.01M CaCl2, pH 8), at 37° C. for enzyme renaturation and subsequent proteolytic activity. The gels were washed three times, 5 min each, in deonized water prior to incubation for 1 h in Coomassie Brilliant Blue R-250. […] Protease activity was visible as clear bands on a blue background. […] Protease inhibition by phenyl methyl sulfonyl fluoride (PMSF) and EDTA was determined as described by Bertolini and Rohovec (Bertolini and Rohovec 1992).
Further evaluations of the type of proteases present in the extracellular protease producers were performed by selective inhibition of serine proteases by PMSF and of metallo-proteases by EDTA.

[2] = test system: sea lice larvae and copepodids; assay: Sea lice larvae and copepodids viability bioassay; format: in vivo, Lepeophtheirus salmonis salmonis; conditions: 70 ppm, positive control
Protocol: The assay consisted on incubating sea lice (Lepeophtheirus salmonis salmonis) larvae and copepodids with PF-11 secretome in order to evaluate the viability of the larvae and copepodids compared to a blank control. Sodium hypocholorite (NaoCl), known to kill the larvae within 40 min at 70 ppm, was used as a positive control. Larvae were obtained by sedating salmon sea lice with Benzocain, harvesting egg strings with tweezers, and transferring the strings to a water bath placed in an incubator. Inside the incubator, the water was continuously changed throughout the incubation period. When the larvae were developed, they were removed from the incubator and used in the bioassay. Copepodids were developed from egg strings from sea lice as described for larvae. Seawater containing louse larvae and copepodids was placed in a petri dish and PF-11 secretome was added to the final pretended concentration. Larvae and copepodids in seawater with no added compounds were also used for comparison. The positive control was NaOCl at 70 ppm. The larvae and copepodids viability was checked over time. An evaluation of larvae viability was performed and compared to the viability in the blank controls. The viability in the pure seawater control and the medium blank control was monitored and compared and remained the same throughout the experiment.

[3] = test system: sea lice larvae and copepodids; conditions: 70 ppm; cited from earlier work
[4] = test system: Strain PF-11; format: cell-based, Pseudomonas putida; conditions: CLSI standards, EUCAST resistance breakpoints
Protocol: MICS (Minimum Inhibitory Concentration) was determined by agar dilution and disk diffusion according to CLSI standards (CLSI, M02-A10; CLSI, M100-S21). Briefly, LA plates were prepared supplemented with serial dilutions of the antibiotic to be tested to determine the MIC. The lowest antibiotic concentration preventing growth of the strain is considered the MIC value. The strain Escherichia coli ATCC 25922 was used as control strain, as recommended.

Row | SMILES | susceptibility of strain PF-11 [4] | other results
1 | O=C(O)CN(CCN(CC(=O)O)CC(=O)O)CC(=O)O [EDTA] | – | inhibition of proteolytic activity of PF-11 and NTC secretomes [1]: strongly inhibited
2 | [Na+].[O-]Cl [NaOCl, Sodium hypocholorite] | – | required time to become 100% effective [2]: 20 min; time to kill the larvae [3]: ≤ 40 min
3 | O=S(=O)(F)Cc1ccccc1 [PMSF, phenyl methyl sulfonyl fluoride] | – | inhibition of proteolytic activity of PF-11 and NTC secretomes [1]: significantly lower inhibitory effects
4 | CC1(C)S[C@@H]2[C@H](NC(=O)[C@H](N)c3ccc(O)cc3)C(=O)N2[C@H]1C(=O)O [amoxycillin] | resistant | –
5 | CC1(C)S[C@@H]2[C@H](NC(=O)[C@H](N)c3ccccc3)C(=O)N2[C@H]1C(=O)O [ampicilin] | resistant | –
6 | C[C@H]1[C@H](NC(=O)/C(=N\OC(C)(C)C(=O)O)c2csc(N)n2)C(=O)N1S(=O)(=O)O [aztreonam] | resistant | –
7 | CO/N=C(\C(=O)N[C@@H]1C(=O)N2C(C(=O)O)=C(COC(C)=O)CS[C@H]12)c1csc(N)n1 [cefotaxime] | resistant | –
8 | CO[C@@]1(NC(=O)Cc2cccs2)C(=O)N2C(C(=O)O)=C(COC(N)=O)CS[C@@H]21 [cefoxitine] | resistant | –
9 | CC(C)(O/N=C(\C(=O)N[C@@H]1C(=O)N2C(C(=O)[O-])=C(C[n+]3ccccc3)CS[C@H]12)c1csc(N)n1)C(=O)O [ceftazidime] | resistant | –
